Data as given in patent publication US10583137B2, “Triazole DAGLα inhibitors” (THE SCRIPPS RESEARCH INSTITUTE, priority 2015, dated 2020).

What was measured:
[1] = tested on: DAGL enzymes; assay: brain proteomes of treated mice conjugated to Cy5 fluorophore by CuAAC; format: in vivo, mouse
[2] = target: LIPE (Mus musculus (Mouse), UniProt P54310); assay: in vivo ABPP coupled to quantitative mass spectrometry (FP-biotin, ReDiMe); conditions: brain proteomes of treated mice
Experimental: (§1) The extent of these target profiles were confirmed by performing ABPP coupled to high-resolution, quantitative mass spectrometry (MS). Briefly, brain proteomes from compound and vehicle-treated mice were incubated with the serine hydrolase directed activity-based probe FP-biotin, and probe-labeled enzymes were enriched by streptavidin chromatography, digested on bead with trypsin, and the resulting tryptic peptides modified by reductive dimethylation (ReDiMe) of lysine residues using isotopically heavy and light formaldehyde, respectively. In these experiments, inhibited serine hydrolases are identified as enzymes showing low heavy/light ReDiMe ratios.

[3] = target: PAFAH2 (Mus musculus (Mouse), UniProt Q8VDG7); assay: as above; conditions: brain proteomes of treated mice
Sequence of PAFAH2 (Q8VDG7 whole entry): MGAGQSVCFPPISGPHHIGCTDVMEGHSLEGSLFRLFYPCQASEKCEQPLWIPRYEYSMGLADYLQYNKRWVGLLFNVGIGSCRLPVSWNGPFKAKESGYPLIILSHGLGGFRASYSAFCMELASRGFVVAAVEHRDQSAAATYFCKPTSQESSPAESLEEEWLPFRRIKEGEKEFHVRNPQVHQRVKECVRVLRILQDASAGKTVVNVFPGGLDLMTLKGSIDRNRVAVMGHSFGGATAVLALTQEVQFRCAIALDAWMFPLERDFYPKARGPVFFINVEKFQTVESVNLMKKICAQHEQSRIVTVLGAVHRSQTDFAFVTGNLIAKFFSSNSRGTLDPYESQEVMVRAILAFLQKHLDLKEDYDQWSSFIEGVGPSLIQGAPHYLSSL
Experimental: as §1

[4] = target: PLA2G7 (Mus musculus (Mouse), UniProt Q60963); assay: as above; conditions: brain proteomes of treated mice
Sequence of PLA2G7 (Q60963 22-440): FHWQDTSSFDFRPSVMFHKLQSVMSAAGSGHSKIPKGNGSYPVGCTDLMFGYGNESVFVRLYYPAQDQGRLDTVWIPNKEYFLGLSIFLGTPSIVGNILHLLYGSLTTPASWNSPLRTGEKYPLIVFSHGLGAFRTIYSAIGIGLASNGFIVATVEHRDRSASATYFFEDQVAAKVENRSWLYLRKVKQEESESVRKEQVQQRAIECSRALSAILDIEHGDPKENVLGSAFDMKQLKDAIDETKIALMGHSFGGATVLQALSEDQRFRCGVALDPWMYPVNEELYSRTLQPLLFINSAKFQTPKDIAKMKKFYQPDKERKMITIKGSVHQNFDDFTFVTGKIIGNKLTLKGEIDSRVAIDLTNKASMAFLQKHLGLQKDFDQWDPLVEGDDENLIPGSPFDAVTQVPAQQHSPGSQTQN
Experimental: as §1

Sequence of LIPE (P54310 whole entry): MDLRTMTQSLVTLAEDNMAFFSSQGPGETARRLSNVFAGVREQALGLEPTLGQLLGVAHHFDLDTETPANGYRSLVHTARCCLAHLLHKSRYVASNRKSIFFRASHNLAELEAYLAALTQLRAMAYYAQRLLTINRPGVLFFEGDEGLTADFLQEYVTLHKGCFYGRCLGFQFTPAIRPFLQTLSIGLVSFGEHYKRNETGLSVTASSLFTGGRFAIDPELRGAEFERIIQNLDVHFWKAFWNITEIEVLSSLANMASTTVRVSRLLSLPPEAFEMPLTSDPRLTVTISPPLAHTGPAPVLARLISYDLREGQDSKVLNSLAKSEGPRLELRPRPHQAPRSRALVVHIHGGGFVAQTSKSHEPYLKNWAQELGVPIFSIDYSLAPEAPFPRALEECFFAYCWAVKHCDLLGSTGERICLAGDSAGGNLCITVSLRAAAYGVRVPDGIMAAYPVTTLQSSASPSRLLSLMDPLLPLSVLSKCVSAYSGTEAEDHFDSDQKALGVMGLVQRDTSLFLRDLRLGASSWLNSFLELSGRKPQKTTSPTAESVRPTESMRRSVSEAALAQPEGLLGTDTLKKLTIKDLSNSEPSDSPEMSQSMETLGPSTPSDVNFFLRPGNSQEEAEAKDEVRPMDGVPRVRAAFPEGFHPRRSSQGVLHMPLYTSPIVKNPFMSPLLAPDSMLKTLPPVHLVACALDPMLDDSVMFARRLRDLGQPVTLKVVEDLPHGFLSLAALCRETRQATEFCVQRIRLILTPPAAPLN

C#CCO[C@@H]1CC[C@H](Cc2ccccc2)N(C(=O)n2ncc(C(O)(c3ccc(F)cc3)c3ccc(F)cc3)n2)C1 [Compound 14, ((2R,5R)-2-Benzyl-5-(prop-2-ynyloxy)piperidin-1-yl)(4-(bis(4-fluorophenyl)(hydroxy)methyl)-2H-1,2,3-triazol-2-yl)methanone]
labeling of DAGL enzymes in brain proteomes of treated mice [1]: direct, dose-dependent labeling
heavy/light ReDiMe ratio, LIPE (off-target) [2]: < 0.5

CC(C)(C)OC(=O)N1CCN(C(=O)n2cc(-c3ccc(OC(F)(F)F)cc3)nn2)C(Cc2ccccc2)C1 (stereo not shown) [Compound 17, tert-Butyl 3-benzyl-4-(4-(4-(trifluoromethoxy)phenyl)-1H-1,2,3-triazole-1-carbonyl)piperazine-1-carboxylate]
heavy/light ReDiMe ratio, PAFAH2 (off-target) [3]: < 0.5
heavy/light ReDiMe ratio, PLA2G7 (off-target) [4]: < 0.5
